Measured values published in patent publication US5344843A, “Cat-1 inhibitors, pharmaceutical compositions and methods of use” (Hoffman-La Roche Inc., priority 1992, dated 1994).
pIC50: −log10 of the molar value. Counter-ions that a name gives are not always drawn.

Tests used:
[1] = molecular target: T1, CAT-1 (carnitine acyltransferase 1) (Rattus norvegicus, UniProt Q63704); test: Secondary Screen--Inhibition of CAT-1 in intact cardiac myocytes (hypoxia-induced increase in long-chain acylcarnitines); assay type: cell-based; set-up: inhibition: dose or concentration left out as unconfirmed; conditions: isolated rat cardiac myocytes; for pIC50: 50% inhibition of hypoxia-induced increase in long-chain acylcarnitines
T1 construct: This preparation is used as the isolated mitochondrial preparation; from tissue; host or cells: rat heart (atria removed), isolated mitochondria
T1 sequence (Q63704 1-772): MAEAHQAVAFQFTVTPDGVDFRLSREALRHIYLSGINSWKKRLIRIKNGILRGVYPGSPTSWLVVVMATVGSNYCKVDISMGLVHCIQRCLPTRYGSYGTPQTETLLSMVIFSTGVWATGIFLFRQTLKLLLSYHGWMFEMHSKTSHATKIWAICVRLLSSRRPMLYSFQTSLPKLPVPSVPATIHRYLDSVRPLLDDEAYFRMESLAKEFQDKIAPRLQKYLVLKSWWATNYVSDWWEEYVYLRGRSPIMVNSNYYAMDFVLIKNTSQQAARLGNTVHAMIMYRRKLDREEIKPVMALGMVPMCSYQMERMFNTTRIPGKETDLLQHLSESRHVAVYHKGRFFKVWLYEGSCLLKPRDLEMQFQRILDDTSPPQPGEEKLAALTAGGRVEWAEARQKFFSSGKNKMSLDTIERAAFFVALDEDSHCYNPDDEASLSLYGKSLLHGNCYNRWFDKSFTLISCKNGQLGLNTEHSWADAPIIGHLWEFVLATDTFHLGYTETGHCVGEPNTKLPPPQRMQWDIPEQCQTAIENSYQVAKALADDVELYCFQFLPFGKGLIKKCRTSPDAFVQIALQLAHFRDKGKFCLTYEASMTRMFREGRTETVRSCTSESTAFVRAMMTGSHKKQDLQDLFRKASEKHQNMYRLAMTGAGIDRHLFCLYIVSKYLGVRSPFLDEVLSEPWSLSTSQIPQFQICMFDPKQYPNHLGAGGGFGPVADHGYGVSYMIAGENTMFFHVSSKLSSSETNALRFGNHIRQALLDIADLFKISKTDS
Experimental: Secondary Screen--Inhibition of CAT-1 in intact Cardiac Myocytes
(a) Preparation of Isolated Rat Cardiac Myocytes
Four hearts are excised from anesthetized rats and perfused retrogradly via the Langendorf technique. Each heart receives 100 mL of Krebs (NaCl, 118.4 mM; KCL, 4.6 mM; NaH2 PO4, 1.0 mM; NaHCO3, 20 mM; MgSO4, 2 mM; CaCl2, 50 μM; glucose, 11.0 mM), 100 mL of Ca++ free Krebs and finally 100 mL of 0.5% collagenase (Boehringer Mannhelm, type 1) in Hepes (NaCl, 115 mM; KCl, 5 mM; sucrose, 35 mM; glucose, 10 mM; Hepes, 10 mM; taurine, 4 mM; MgSO4, 2 mM; CaCl2, 50 μM). After these perfusions, the hearts are chopped into pieces, approx. 0.5 cm×0.5 cm and placed in four 125 mL plastic bottles along with 25 mL of collagenase/Hepes situated in a water bath maintained at 35° C. The pieces of cardiac tissue in each bottle are agitated by using a Harvard respirator connected to four glass syringes, which sucks the tissue up and down each tube during each respiratory cycle. After fifteen minutes, the collagenase/Hepes is removed and replaced with fresh collegenase/Hepes and the process repeated. The collegenase/Hepes from the subsequent fifteen minute harvests are centrifuged at 500 g to pellet the cells which are then resuspended in Hepes buffer. After six harvests, all cells are pelleted, resuspended in 2×26.5 mL of Hepes plus BSA (350 mg) and layered on top of 2×percoll gradients (21.15 mL percoll, 2.35 mL NaCl, 6 drops acetic acid). This is centfifuged at 3000 g for eight minutes forming a percoll gradient which results in viable cells being separated from damaged cells. The viable cells are removed, washed with Hepes and finally resuspended in 25 mL of Hepes.
The isolated cardiac myocytes (2 mL; approximately 1×10^6 cells) are separated into six glass pods. Into four of these are placed selected concentrations of the compound to be tested, and the cells are incubated for twenty minutes, after which the pods are centrifuged at 300 g for three minutes. 300 μL of normoxic Hepes is placed in one of the pods not containing compound and then all pods are placed in a hypoxic chamber (N2 atmosphere). Oxygen is fed via small bore steel tubes to the pod containing the normoxic buffer, while the other five pods receive pre-purified argon (99.998% pure). After two minutes, Hepes (pre-gassed with argon for at least twelve hours) is fed into the five hypoxic pods. This hypoxic environment (pO2 <10 mm Hg) is maintained for twenty minutes, after which the cells and pods are frozen by contact with a metal block precooled in liquid N2. The pods are then removed from the chamber and stored at -70° C. The carnitine assay is performed, as described below in (c), to determine the amount of long-chain acylcarnitine in the cells from the normoxic, hypoxic and hypoxic plus compound samples. […] Thus the IC50 in this screen is the concentration of test compound which produces a 50% inhibition of the hypoxia-induced increase in long-chain acylcarnitines.
(c) Long-chain Acylcarnitine Assay.
The frozen cell samples are thawed, mixed and homogenized with 40 μL of 70% PCA. The homogenate is transferred to eppendorf tubes while the homogenization tube and the glass pod is rinsed with 500 μL of 7% PCA, with the rinse being added to the eppendorf tube. This is then centrifuged at 1000 g for two minutes to pellet the precipitate (containing the long-chain acylcarnitine) and the supernatant is discarded. The pellet is washed twice with 500 μL of 7% PCA, the supernatants being discarded. The pellet is then hydrolyzed (to separate the acyl unit from carnitine to yield free carnitine) by the addition of 200 μL of aleionized H2 O and 50 μL of 5N KOH and incubated at 70° C. for ninety minutes.

[2] = molecular target: T1, CAT-1 (carnitine acyltransferase 1); test: Primary Screen--Inhibition of CAT-1 in isolated mitochondria; assay type: biochemical; conditions: rat heart mitochondria, reduction of palmitoyl carnitine formation by 50%; read-out: Primary Screen IC50
Experimental: Primary Screen--Inhibitors of CAT-1 in 1Mitochondria
(a). Preparation of Mitochondria
The heart is rapidly removed from an anesthetized rat (sodium pentabarbitol) and placed in ice-cold homogenization buffer (sucrose, 250 mM; Tris, 10 mM; EDTA, 1 mM; BSA, 0.01%; pH=7.4). The atria and extraneous tissue are removed and the remainder is chopped with scissors. The pieces are rinsed in homogenization buffer before being homogenized in 10 mL of the same buffer for 5-7 seconds. The homogenate is then diluted with homogenization buffer (40 total volume) and centrifuged at 200 g for 20 minutes. The supernatant is withdrawn and centrifuged at 7000 g for 20 minutes and the resulting pellet is isolated, resuspended in 40 mL of homogenization buffer and centrifuged once more at 7000 g for 20 minutes. The isolated pellet is resuspended in 10 mL of homogenization buffer and stored at 4° C. until use. This preparation is used as the isolated mitochondrial preparation.
(b). Inhibition of CAT-1 assay
Isolated mitochondria (20 μL) are incubated with 60 μL of Tris/sucrose buffer (sucrose, 500 mM; Tris, 20 mM; KCl, 100 mM; EDTA, 2 mM; pH=7.0 plus 83 μM palmitoyl CoA, and BSA, 0.8 mg/mL and 10^-4 to 10^-10 M of the drug to be tested. After 10 minutes at 30° C., the reaction is started by addition of 10 μL of ^3 H-carnitine (final concentration=250 μM). After 5 minutes, the reaction is terminated by the addition of ice cold 70% perchloric acid (PCA). The precipitated solids so formed, containing the insoluble product of the enzyme palmitoyl carnitine, are captured on filter paper. The filter paper is washed with 7% PCA, then dried and placed in scintillation vials with 10 mL of scintillant (Aquasol, New England Nuclear) and counted for radioactivity. The rate of the reaction is assessed by the difference in radioactivity between zero time and five minutes in the absence of test compound. The ability of test compounds at selected concentrations to inhibit CAT-1 is determined by their ability to reduce the formation of the radioactive product. The IC50 of the test compound is the concentration of test compound that reduces the formation of radioactive product by 50%.

Row | Structure (SMILES) | pIC50 [1] | pIC50 [2] | inhibition ([1]; hypoxia) | inhibition at 25 µM ([1]; @ 25 μM, hypoxia)
1 | CCC(C)(C)C(=O)Oc1cccc2ccc(OCCOc3ccc(C(=O)C(=O)O)cc3)cc12 [Example 134, 4-[[2-[8-(2,2-dimethyl-1-oxobutoxy)-2-naphthalenyloxy]ethyl]oxy]-alpha-oxobenzeneacetic acid] | 6.40 | 6.22 |  | 
2 | O=C(O)C(=O)c1ccc(OCCCCOc2ccccc2)cc1 [Example 71, alpha-oxo-4-[[(4-phenoxy)butyl]oxy]benzeneacetic acid] | 4.70 | 6.40 |  | 
3 | N[C@H](C(=O)O)c1ccc(OCCOC2CCCCCCC2)cc1 [Example 18, (S)-alpha-amino-4-[[2-(cyclooctyloxy)ethyl]oxy]benzeneaceticacid hydrochloride] | 5.30 | 4.43 |  | 
4 | O=C(O)C(=O)c1ccc(OCCCCOc2ccc3ccccc3c2)cc1 [Example 88, 4-[[4-(2-naphthalenyloxy)butyl]oxy]-alpha-oxobenzeneacetic acid] | 5.46 | 6.77 |  | 
5 | O=C(O)C(=O)c1ccc(OCCOC2CCCCC2)cc1 [Example 99, 4-[[2-(cyclohexyloxy)ethyl]oxy]-alpha-oxobenzeneacetic acid] | 4.70 | 6.05 |  | 
6 | O=C(O)C(=O)c1ccc(SCCOC2CCCCCCC2)cc1 [Example 173, 4-[[2-(cyclooctyloxy)ethyl]thio]-alpha-oxobenzeneacetic acid] | 6.52 | 6.10 |  | 
7 | O=C(O)C(=O)c1ccc(C#CCOc2ccc3ccccc3c2)cc1 [Example 142, 4-[3-(2-naphthalenyloxy)-1-propynyl]-alpha-oxobenzeneacetic acid] | 4.70 | 5.74 |  | 
8 | O=C(O)C(F)(F)c1ccc(OCCOc2ccc3ccccc3c2)cc1 [Example 13, alpha, alpha-difluoro-4-[[2-(2-naphthalenyloxy)ethyl]oxy]benzeneacetic acid] | 5.42 | 5.76 |  | 
9 | O=C(O)C(=O)c1ccc(OCCOc2ccc3ccccc3c2)cc1F [Example 197, 2-fluoro-4-[2-(2-naphthalenyloxy)ethoxy]-alpha-oxobenzeneacetic acid] | 5.22 | 6.80 |  | 
10 | O=C(O)C(=O)c1ccc(OCCCCc2ccccc2)cc1 [Example 25, 4-[(4-phenybutyl)oxy]-alpha-oxobenzeneacetic acid] | 4.92 | 5.70 |  | 
11 | O=C(O)C(=O)c1ccc(OCCOC23CC4CC(CC(C4)C2)C3)cc1 [Example 103, alpha-oxo-4-[[2-[tricyclo(3.3.1.1-3,7)dec-1-yloxy]ethyl]oxy]benzeneacetic acid] | 4.40 | 5.82 |  | 
12 | O=C(O)C(=O)c1ccc(OCC(=O)N2CCC(c3ccccc3)CC2)cc1 [Example 245, alpha-oxo-4-[2-oxo-2-(4-phenyl-1-piperidinyl)ethoxy]benzeneacetic acid] |  | 7.22 | 33% | 
13 | CCC(C)(C)C(=O)OCc1cccc(C)c1OCCSc1ccc(C(=O)C(=O)O)cc1 [Example 175, 4-[[2-[2-[(2,2-dimethyl-1-oxobutoxy)methyl]-6-methylphenoxy]ethyl]thio]-alpha-oxobenzeneacetic acid] | 6.70 | 6.30 |  | 
14 | O=C(O)C(=O)c1c(F)c(F)c(OCCOc2ccc3ccccc3c2)c(F)c1F [Example 205, 2,3,5,6-tetrafluoro-4-[2-(2-naphthalenyloxy)ethoxy]-alpha-oxobenzeneaceticacid] |  | 5.14 |  | 35%
15 | CN(C)CCOC(=O)C(=O)c1ccc(OCCOc2ccc3ccccc3c2)s1 [Example 6, 5-[[2-(2-naphthalenyloxy)ethyl]oxy]-alpha-oxo-2-thiopheneacetic acid 2-(dimethylamino)ethyl ester] | 6.52 | 7.40 |  | 
16 | O=C(O)C(=O)c1ccc(OCCOc2cccc3ccccc23)cc1 [Example 84, 4-[[2-(1-naphthalenyloxy)ethyl]oxy]-alpha-oxobenzeneacetic acid] | 5.40 | 7.10 |  | 

Row | Structure (SMILES) | pIC50 [1] | pIC50 [2] | inhibition ([1]; hypoxia) | inhibition at 25 µM ([1]; @ 25 μM, hypoxia)
17 | O=C(OCC(O)CO)C(=O)c1ccc(OCCOc2ccc3ccccc3c2)cc1 (racemic) [Example 104, rac.-4-[[2-(2-naphthalenyloxy)ethyl]oxy]-alpha-oxobenzeneacetic acid 2,3-dihydroxypropyl ester] | 5.92 | 7.40 |  | 
18 | CCC(C)(C)C(=O)OCc1cccc(C)c1CCCOc1ccc(C(=O)C(=O)O)cc1 [Example 223, 4-[3-[2-[(2,2-dimethyl-1-oxobutoxy)methyl]-6-methylphenyl]propoxy]-alpha-oxobenzeneacetic acid] | 7.05 | 5.96 |  | 
19 | O=C(O)C(=O)c1c(F)cc(OCCOc2ccc3ccccc3c2)cc1F [Example 201, 2,6-difluoro-4-[2-(2-naphthalenyloxy)ethoxy]-alpha-oxobenzeneacetic acid] | 5.15 | 6.08 |  | 
20 | CCC(C)(C)C(=O)OCc1cccc(C)c1OCCOc1ccc(C(=O)C(=O)O)cc1 [Example 136, 4-[[2-[2-[(2,2-Dimethyl-1-oxobutoxy)methyl]-6-methylphenoxy]ethyl]oxy]-alpha-oxobenzeneacetic acid (2:1) hydrate] | 6.05 | 5.11 |  | 
21 | O=C(O)C(=O)c1ccc(OCCOC2CCCCCCC2)s1 [Example 9, 5-[[2-(cyclooctyloxy)ethyl]oxy]-alpha-oxo-2-thiopheneacetic acid] | 5.10 | 5.74 |  | 
22 | O=C(O)C(=O)c1ccc(OCCSc2ccc3ccccc3c2)cc1 [Example 90, 4-[[2-(2-naphthalenylthio)ethyl]oxy]-alpha-oxobenzeneacetic acid] | 4.55 | 6.57 |  | 
23 | Cc1cc(C(=O)C(=O)O)ccc1OCCOc1ccc2ccccc2c1 [Example 181, 3-methyl-4-[2-(2-naphthalenyloxy)ethoxy]-alpha-oxobenzeneacetic acid] | 5.12 | 6.40 |  | 
24 | O=C(O)C(=O)c1ccc(OCCSc2ccccc2)cc1 [Example 82, alpha-oxo-4-[[2-(phenylthio)ethyl]oxy]benzeneacetic acid] | 4.76 | 6.52 |  | 
25 | CC(C)(C)c1ccc(C(=O)COc2ccc(C(=O)C(=O)O)cc2)cc1 [Example 286] | 5.92 | 6.52 |  | 
26 | C[N+](C)(C)CCOC(=O)C(=O)c1ccc(OCCOc2ccc3ccccc3c2)s1 [Example 7, 2-[[5-[[2-(2-naphthalenyloxy)ethyl]oxy]-alpha-oxo-2-thiopheneacetyl]oxy]-N,N,N-trimethylethanaminium iodide] | 7.00 | 7.52 |  | 
27 | O=C(O)C(=O)c1ccc(OCCOc2ccccc2)cc1 [Example 37, alpha-oxo-4-[[2-(phenoxy)ethyl]oxy]benzeneacetic acid] | 4.43 | 5.70 |  | 
28 | CCC(C)(C)C(=O)OCc1cccc(C)c1C#CCOc1ccc(C(=O)C(=O)O)cc1 [Example 212, 4-[3-[2-[(2,2-dimethyl-1-oxobutoxy)methyl]-6-methylphenyl]-2-propynyloxy]-alpha-oxobenzeneacetic acid (1:1) morpholine salt] |  | 6.33 | 47% | 
29 | O=C(O)C(=O)c1ccc(OCCOc2ccc3ccccc3c2)cc1 [Example 86, 4-[[2-(2-naphthalenyloxy)ethyl]oxy]-alpha-oxobenzeneacetic acid] | 5.52 | 7.10 |  | 
30 | O=C(O)/C(=N/O)c1ccc(OCCOc2ccc3ccccc3c2)s1 [Example 302, (Z)-alpha-(hydroxyimino)-5-[2-(2-naphthalenyloxy)ethoxy]-2-thiopheneaceticacid] | 6.05 | 6.62 |  | 
31 | CC(C)c1cccc(-c2ccc(F)cc2)c1/C=C/COc1ccc(C(=O)C(=O)O)cc1 [Example 229, (E)-4-[3-[4'-fluoro-3-(1-methylethyl)[1,1'-biphenyl]-2-yl]-2-propenyloxy]-alpha-oxobenzeneacetic acid] | 6.00 | 5.05 |  | 
32 | CCC(C)(C)C(=O)OCc1cccc(C)c1OCCOc1ccc([C@H](N)C(=O)O)cc1 [Example 298, (S)-alpha-amino-4-[2-[2-[(2,2-dimethyl-1-oxobutoxy)methyl]-6-methylphenoxy]ethoxy]benzeneacetic acid] | 4.52 | 5.60 |  | 
